Experimental data taken from ChEMBL document CHEMBL1201862, “PubChem BioAssay data set” (2004).
Activity calls are given as the source filed them.

Legend:
[1] = biological target: T1, Polyadenylate-binding protein 1 (Homo sapiens, UniProt P11940); assay: PABP1 MLLE–PAM2 binding inhibitor potency, dose response, biochemical, fluorescence polarization, FITC-PAM2 peptide (AID 602259); format: functional; conditions: read-out: IC50_Mean
[2] = biological target: T1, Polyadenylate-binding protein 1; assay: PABP1 MLLE–PAM2 interaction inhibitors, dose response, miRNA deadenylation inhibitor project, biochemical, fluorescence polarization, Cy5-PAM2 peptide, secondary (AID 602260); format: functional; conditions: read-out: IC50_Mean
[3] = biological target: FAD-linked sulfhydryl oxidase ALR (Homo sapiens, UniProt P55789); assay: inhibitors of human ALR sulfhydryl oxidase, dose response, biochemical, H2O2 detection, luminescence, cherry-pick (AID 493248)
Sequence of FAD-linked sulfhydryl oxidase ALR (P55789 whole entry): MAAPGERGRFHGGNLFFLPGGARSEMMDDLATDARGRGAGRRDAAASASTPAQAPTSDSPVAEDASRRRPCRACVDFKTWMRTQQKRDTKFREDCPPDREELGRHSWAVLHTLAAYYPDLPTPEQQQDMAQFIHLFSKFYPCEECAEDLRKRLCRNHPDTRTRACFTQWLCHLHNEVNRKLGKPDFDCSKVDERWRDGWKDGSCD

[4] = biological target: T2, High affinity choline transporter 1 (Homo sapiens, UniProt Q9GZV3); assay: CHT inhibitors, dose response, cell-based, 5-point CRC, membrane potential dye (AID 504840); format: functional
T2 sequence (Q9GZV3 whole entry): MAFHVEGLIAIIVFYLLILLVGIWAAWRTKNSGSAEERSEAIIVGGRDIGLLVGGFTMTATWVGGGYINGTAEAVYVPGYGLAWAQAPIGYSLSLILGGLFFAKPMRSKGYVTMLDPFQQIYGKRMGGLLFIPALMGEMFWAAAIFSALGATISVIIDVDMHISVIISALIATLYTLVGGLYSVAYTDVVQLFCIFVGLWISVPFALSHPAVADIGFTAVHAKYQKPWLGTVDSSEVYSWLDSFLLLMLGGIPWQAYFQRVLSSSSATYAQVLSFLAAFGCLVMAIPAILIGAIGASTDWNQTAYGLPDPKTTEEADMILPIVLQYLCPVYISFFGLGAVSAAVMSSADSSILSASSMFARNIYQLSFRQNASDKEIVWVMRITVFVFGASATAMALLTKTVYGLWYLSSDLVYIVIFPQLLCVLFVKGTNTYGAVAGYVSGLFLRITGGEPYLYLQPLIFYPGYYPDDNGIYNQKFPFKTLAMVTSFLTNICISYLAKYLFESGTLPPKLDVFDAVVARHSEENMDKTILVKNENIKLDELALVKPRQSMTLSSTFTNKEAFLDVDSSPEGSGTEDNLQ

[5] = biological target: T3, Rac GTPase-activating protein 1 (Homo sapiens, UniProt Q9H0H5); assay: MgcRacGAP GTPase-activating activity inhibitors, confirmation, biochemical, ADP Hunter fluorescence, primary and confirmatory (AID 624330); format: functional
T3 sequence (Q9H0H5 whole entry): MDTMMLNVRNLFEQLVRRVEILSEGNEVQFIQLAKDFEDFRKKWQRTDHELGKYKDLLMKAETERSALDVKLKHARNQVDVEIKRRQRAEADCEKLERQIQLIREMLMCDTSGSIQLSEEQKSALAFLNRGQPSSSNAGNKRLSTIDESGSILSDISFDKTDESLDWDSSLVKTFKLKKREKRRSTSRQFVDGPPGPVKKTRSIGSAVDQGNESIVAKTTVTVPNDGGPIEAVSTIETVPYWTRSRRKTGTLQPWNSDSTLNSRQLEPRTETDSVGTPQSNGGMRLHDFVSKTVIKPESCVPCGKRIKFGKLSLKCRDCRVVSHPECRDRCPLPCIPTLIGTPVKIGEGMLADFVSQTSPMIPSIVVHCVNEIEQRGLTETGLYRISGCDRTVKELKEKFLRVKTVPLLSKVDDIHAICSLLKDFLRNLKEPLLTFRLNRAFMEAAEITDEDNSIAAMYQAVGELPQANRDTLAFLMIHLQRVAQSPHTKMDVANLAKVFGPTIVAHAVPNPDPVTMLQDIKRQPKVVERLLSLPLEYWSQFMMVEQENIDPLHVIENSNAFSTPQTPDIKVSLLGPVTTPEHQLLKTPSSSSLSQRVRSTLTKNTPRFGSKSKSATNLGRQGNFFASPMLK

P388/ADR = assay: cells; format: functional; conditions: Mus musculus
SN12K1 = assay: cells; format: functional; conditions: Homo sapiens
P388 = assay: cells; format: functional; conditions: Mus musculus
[6] = intracellular Trypanosoma cruzi inhibitors in host cells – cell-based, plate reader, cherry-pick samples, set 3, dose response (AID 651818); format: functional;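 also: compounds incubated with infected cells for about four days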
[7] = biological target: T4, Calpain-2 catalytic subunit (Sus scrofa, UniProt P43367); assay: pig calpain II inhibitor potency, dose response, biochemical, fluorogenic peptide substrate (AID 1420); format: functional
T4 sequence (P43367 whole entry): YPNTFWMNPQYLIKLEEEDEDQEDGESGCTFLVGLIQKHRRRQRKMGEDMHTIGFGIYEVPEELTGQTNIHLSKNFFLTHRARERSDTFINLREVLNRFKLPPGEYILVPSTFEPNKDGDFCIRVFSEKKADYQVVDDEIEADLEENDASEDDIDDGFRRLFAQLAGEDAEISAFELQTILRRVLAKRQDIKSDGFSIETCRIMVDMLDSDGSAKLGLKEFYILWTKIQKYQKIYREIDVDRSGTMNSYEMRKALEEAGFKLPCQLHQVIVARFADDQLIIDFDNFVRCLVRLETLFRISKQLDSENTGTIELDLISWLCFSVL

[8] = biological target: T5, Corticotropin-releasing factor receptor 2/Corticotropin-releasing factor-binding protein (Homo sapiens, UniProt P24387+Q13324); assay: Dose Response confirmation of uHTS hits for small molecule antagonists of the CRF-binding protein and CRF-R2 receptor complex.; format: functional; conditions: read-out: IC50_Mean
T5 sequence (Q13324 whole entry): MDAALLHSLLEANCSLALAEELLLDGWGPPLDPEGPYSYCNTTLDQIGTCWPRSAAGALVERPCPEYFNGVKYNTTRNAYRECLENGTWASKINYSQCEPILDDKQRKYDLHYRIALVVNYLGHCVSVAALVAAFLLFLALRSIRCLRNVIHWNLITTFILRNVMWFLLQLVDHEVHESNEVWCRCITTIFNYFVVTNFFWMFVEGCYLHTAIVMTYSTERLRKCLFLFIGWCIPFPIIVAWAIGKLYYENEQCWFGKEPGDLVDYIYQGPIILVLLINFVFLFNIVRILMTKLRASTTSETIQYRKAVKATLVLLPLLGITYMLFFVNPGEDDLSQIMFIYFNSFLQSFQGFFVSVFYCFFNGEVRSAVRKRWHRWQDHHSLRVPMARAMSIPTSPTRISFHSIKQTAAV
T5 sequence (P24387 whole entry): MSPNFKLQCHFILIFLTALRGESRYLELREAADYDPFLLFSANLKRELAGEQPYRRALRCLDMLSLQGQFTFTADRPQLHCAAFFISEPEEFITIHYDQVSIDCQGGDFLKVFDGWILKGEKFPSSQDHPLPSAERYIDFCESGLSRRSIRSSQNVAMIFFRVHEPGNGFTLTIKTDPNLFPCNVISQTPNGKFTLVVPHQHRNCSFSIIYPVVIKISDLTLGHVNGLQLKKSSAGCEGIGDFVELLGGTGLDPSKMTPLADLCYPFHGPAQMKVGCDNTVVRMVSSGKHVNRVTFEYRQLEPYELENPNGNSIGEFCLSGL

[9] = biological target: T5, Corticotropin-releasing factor receptor 2/Corticotropin-releasing factor-binding protein; assay: activators of CRF receptor 2 with binding protein – uHTS hits, confirmation (AID 602473); format: functional; conditions: read-out: EC50_Mean

T1 sequence (P11940 whole entry): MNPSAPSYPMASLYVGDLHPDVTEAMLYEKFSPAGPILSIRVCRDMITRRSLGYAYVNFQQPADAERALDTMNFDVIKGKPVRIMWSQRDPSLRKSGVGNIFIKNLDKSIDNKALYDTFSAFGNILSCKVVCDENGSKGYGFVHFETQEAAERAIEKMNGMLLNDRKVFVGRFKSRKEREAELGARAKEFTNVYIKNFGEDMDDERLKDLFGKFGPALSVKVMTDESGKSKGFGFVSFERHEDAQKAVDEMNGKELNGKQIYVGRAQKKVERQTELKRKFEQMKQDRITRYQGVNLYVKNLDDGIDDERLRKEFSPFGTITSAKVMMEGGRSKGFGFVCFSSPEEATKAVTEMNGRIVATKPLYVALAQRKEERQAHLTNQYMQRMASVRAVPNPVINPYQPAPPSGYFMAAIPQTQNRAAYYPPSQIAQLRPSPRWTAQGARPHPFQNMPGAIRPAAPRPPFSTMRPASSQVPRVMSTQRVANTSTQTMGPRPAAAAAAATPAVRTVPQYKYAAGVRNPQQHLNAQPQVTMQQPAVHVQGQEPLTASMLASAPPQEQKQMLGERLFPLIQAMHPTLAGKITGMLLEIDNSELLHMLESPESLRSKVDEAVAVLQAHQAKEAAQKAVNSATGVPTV

In the case of `COC(=O)c1ccc2c(=O)sc(N3CCC(C(N)=O)CC3)nc2c1`, the IC50 [1] is reported as 52.6 µM (inactive) and the IC50 [2] is reported as > 66 µM (inactive).

With `O=C1CC(=O)N(c2ccccc2)N1c1ccccc1` the AC50 [3] was 4.37 µM (active).

For `Cc1ccc(S(=O)(=O)N2[C@@H](c3ccc(Cl)cc3)C(C(=O)O)=CC[C@H]2c2ccc(Cl)c(Cl)c2)cc1`, the AC50 [3] was 6.86 µM (active) and the IC50 [4] was 0.794 µM (active).

For `COc1cc(/C=N/n2c(S)nnc2C2CCCCC2)ccc1O`, the IC50 [5] was 47.9 µM (active) and the AC50 [3] was 2.3 µM (active).

For `COc1ccc(Cc2nn(C3OC(COC(C)=O)C(OC(C)=O)C(OC(C)=O)C3OC(C)=O)c(=S)n(-c3ccc(OC)cc3)c2=O)cc1` (stereo unspecified), the GI50 (P388/ADR) was > 100 µM (inactive), the GI50 (SN12K1) was > 100 µM (inactive) and the GI50 (P388) was > 100 µM (inactive).

For `C[C@H](CO)N1C[C@H](C)[C@@H](CN(C)Cc2ccc(C(=O)Nc3ccccc3N)cc2)Oc2c(NS(=O)(=O)c3ccccc3)cccc2C1=O`, the AC50 [6] was 4.71 µM (active).

With `CCCN(CCC)C(=S)NC(=O)c1ccc(-c2ccccc2)cc1` the IC50 [1] was > 66 µM (inactive), the IC50 [7] was 36.7 µM (not active) and the IC50 [2] was > 66 µM (inactive).

For `C=C1C(C)C2C(Cc3ccccc3)NC(=O)C23C(OC(C)=O)C=CC(C)(O)C(=O)C(C)C/C=C/C3C1O` (stereo unspecified), the GI50 (P388/ADR) was 14.4 µM (inactive), the GI50 (SN12K1) was 0.0619 µM (active) and the GI50 (P388) was 0.454 µM (active).

With `O=C(NCc1cccnc1)c1ccc2c(c1)N(Cc1ccccc1)CCS2` the AC50 [3] was 3.31 µM (active).

In the case of `Fc1ccc(-c2ccnc(S)n2)cc1`, the IC50 [1] is reported as > 66 µM (inactive), the AC50 [3] is reported as 0.301 µM (active) and the IC50 [2] is reported as > 66 µM (inactive).

In the case of `O=C1C(Br)=CC2([N+](=O)[O-])CCNC3=C(C4=NCCc5c[nH]c(c54)C3=O)C2=C1Br` (stereo unspecified), the GI50 (P388/ADR) is reported as 0.579 µM (active), the GI50 (SN12K1) is reported as 3.3 µM (inactive) and the GI50 (P388) is reported as 0.317 µM (active).

With `CC(C)[C@](O)(C(=O)OCC1=CCN2CC[C@@H](O)[C@@H]12)[C@H](C)O` the GI50 (P388/ADR) was > 375 µM (inactive), the GI50 (SN12K1) was > 375 µM (inactive) and the GI50 (P388) was > 375 µM (inactive).

With `COC(=O)c1cccc(N[C@@H]2c3cc4c(cc3C(c3cc(OC)c(O)c(OC)c3)[C@H]3C(=O)OCC32)OCO4)c1` (stereo partly specified) the GI50 (P388/ADR) was 0.271 µM (active), the GI50 (SN12K1) was 0.23 µM (active) and the GI50 (P388) was 0.0103 µM (active).

For `C[C@H](CO)N1C[C@H](C)[C@H](CN(C)S(=O)(=O)c2ccc(F)cc2)Oc2ccc(NC(=O)Nc3ccc(C(F)(F)F)cc3)cc2CC1=O`, the AC50 [6] was 2.56 µM (active).

For `CC1CCN(C(=S)c2ccc([N+](=O)[O-])cc2)CC1`, the IC50 [1] was > 66 µM (inactive) and the IC50 [2] was > 66 µM (inactive).

With `C[C@H](CO)N1C[C@H](C)[C@H](CN(C)Cc2ccc(C(=O)Nc3ccccc3N)cc2)Oc2c(NC(=O)Nc3ccc(F)cc3)cccc2C1=O` the AC50 [6] was 1.06 µM (active).

With `Cc1noc(C)c1S(=O)(=O)Nc1cccc2c1O[C@H](CN(C)Cc1ccc(C(=O)Nc3ccccc3N)cc1)[C@H](C)CN([C@@H](C)CO)C2=O` the AC50 [6] was 2.03 µM (active).

With `Cc1c2cnccc2c(C)c2c1c1ccccc1n2CC1CO1` (stereo unspecified) the GI50 (P388/ADR) was 0.065 µM (active), the GI50 (SN12K1) was 0.719 µM (active) and the GI50 (P388) was 0.0291 µM (active).

With `Cc1cc(N2CCN(c3ccccc3)CC2)nc(N)n1` the AC50 [3] was 4.38 µM (active).

With `c1ccc2c3c(ccc2c1)-c1[nH]ncc1CCO3` the GI50 (P388/ADR) was 26.9 µM (inactive), the GI50 (SN12K1) was 22.4 µM (inactive) and the GI50 (P388) was 26.1 µM (inactive).

For `C[C@@H]1CN([C@@H](C)CO)C(=O)c2cccc(NC(=O)CCCCCC(=O)Nc3ccccc3N)c2O[C@H]1CN(C)Cc1ccccc1`, the AC50 [6] was 2.43 µM (active).

In the case of `CC(=O)NNc1nc(-c2ccc(NC(C)=O)cc2)cs1`, the AC50 [3] is reported as 0.58 µM (active).

For `Cc1nc2ccccc2c(=O)n1Nc1ccc(C(=O)O)cc1`, the GI50 (P388/ADR) was > 100 µM (inactive), the GI50 (SN12K1) was > 100 µM (inactive) and the GI50 (P388) was > 100 µM (inactive).

With `Cc1cccc(C)c1NC(=S)Nc1ccc(F)cc1` the IC50 [1] was > 66 µM (inactive), the IC50 [8] was > 47.1 µM (inactive) and the IC50 [2] was > 66 µM (inactive). For the same compound, the EC50 [9] was > 53 µM (inactive).

In the case of `C[C@@H]1CCCCO[C@H](CN(C)C(=O)Nc2ccc(C(F)(F)F)cc2)[C@@H](C)CN([C@H](C)CO)C(=O)c2cc(NS(=O)(=O)c3ccc(Cl)cc3)ccc2O1`, the AC50 [6] is reported as 4.76 µM (active).

In the case of `C[C@H]1CN([C@@H](C)CO)C(=O)c2cccc(NC(=O)CCCCCC(=O)Nc3ccccc3N)c2O[C@H]1CN(C)Cc1ccc(Cl)c(Cl)c1`, the AC50 [6] is reported as 3.18 µM (active).

For `O=C1N=C2SCCN2/C1=C\c1ccccc1Cl`, the IC50 [1] was > 66 µM (inactive) and the IC50 [2] was > 66 µM (inactive).

For `C[C@@H]1CN([C@@H](C)CO)C(=O)c2cccc(NC(=O)Nc3ccc4c(c3)OCO4)c2O[C@@H]1CN(C)Cc1ccc(Oc2ccccc2)cc1`, the AC50 [6] was 3.77 µM (active).
